Laboratory results from US6689773B2, “Uracil substituted phenyl sulfamoyl carboxamides” (BASF Aktiengesellschaft, priority 2000, dated 2004).

What was measured:
Format in all cases: in vivo
[1] = test system: SETVI, Green foxtail, Setaria viridis, (L.)Beau; test: Postemergence herbicidal evaluation (Example 147); settings: rating scale 0-9, two to three weeks after treatment
In short: (§1)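 Values are 0-9 visual scores, averaged over repeat tests where available. Seedlings of about two weeks were sprayed with roughly 0.016 to 0.032 kg/ha in 80/20 acetone/water plus 1.0% seed oil, then held in the greenhouse two to three weeks.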

[2] = test system: DIGSA, Crabgrass, (Hairy) L, Digitaria sanguinalis, (L)Scop; test: Postemergence herbicidal evaluation (Example 147); settings: rating scale 0-9, two to three weeks after treatment
In short: as §1

[3] = test system: ALOMY, Blackgrass, Alopecurus myosuroides; test: Postemergence herbicidal evaluation (Example 147); settings: rating scale 0-9, two to three weeks after treatment
In short: as §1

[4] = test system: XANST, Cocklebur, Xanthium strumariam; test: Postemergence herbicidal evaluation (Example 147); settings: rating scale 0-9, two to three weeks after treatment
In short: as §1

[5] = test system: ZEAMX, Field corn, Zea mays L.; test: Postemergence herbicidal evaluation (Example 147); settings: rating scale 0-9, two to three weeks after treatment
In short: as §1

[6] = test system: GLXMA, Soybean, Glycine max, (L.) Merr.; test: Postemergence herbicidal evaluation (Example 147); settings: rating scale 0-9, two to three weeks after treatment
In short: as §1

[7] = test system: ECHCG, Barnyardgrass, Echinochloa crusgalli, (L.)Beau; test: Postemergence herbicidal evaluation (Example 147); settings: rating scale 0-9, two to three weeks after treatment
In short: as §1

[8] = test system: CHEAL, Lambsquarters, Chenopodium album, L. Common; test: Postemergence herbicidal evaluation (Example 147); settings: rating scale 0-9, two to three weeks after treatment
In short: as §1

[9] = test system: AMBEL, Ragweed, Common, Ambrosia artemiisifolia, L.; test: Postemergence herbicidal evaluation (Example 147); settings: rating scale 0-9, two to three weeks after treatment
In short: as §1

[10] = test system: TRZAW, Winter wheat, Tritium Aestivum, L. (Winter); test: Postemergence herbicidal evaluation (Example 147); settings: rating scale 0-9, two to three weeks after treatment
In short: as §1

[11] = test system: IPOHE, Morningglory, Ivyleaf, Ipomoea hederacea, (L)Jacq.; test: Postemergence herbicidal evaluation (Example 147); settings: rating scale 0-9, two to three weeks after treatment
In short: as §1

[12] = test system: ABUTH, Velvetleaf, Abutilon theophrasti, Medic.; test: Postemergence herbicidal evaluation (Example 147); settings: rating scale 0-9, two to three weeks after treatment
In short: as §1

[13] = test system: SETVI, Green foxtail, Setaria viridis, (L.)Beau; test: Preemergence herbicidal evaluation (Example 148); settings: rating scale 0-9, two to four weeks after treatment
In short: (§2)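 Greenhouse cups of separately sown species were treated pre-emergence at about 0.125–0.250 kg/ha. Evaluation was visual, 2–4 weeks after spraying, with averaged values for repeated tests.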

[14] = test system: DIGSA, Crabgrass, (Hairy) L, Digitaria sanguinalis, (L)Scop; test: Preemergence herbicidal evaluation (Example 148); settings: rating scale 0-9, two to four weeks after treatment
In short: as §2

[15] = test system: ALOMY, Blackgrass, Alopecurus myosuroides; test: Preemergence herbicidal evaluation (Example 148); settings: rating scale 0-9, two to four weeks after treatment
In short: as §2

[16] = test system: XANST, Cocklebur, Xanthium strumariam; test: Preemergence herbicidal evaluation (Example 148); settings: rating scale 0-9, two to four weeks after treatment
In short: as §2

[17] = test system: ZEAMX, Field corn, Zea mays L.; test: Preemergence herbicidal evaluation (Example 148); settings: rating scale 0-9, two to four weeks after treatment
In short: as §2

[18] = test system: GLXMA, Soybean, Glycine max, (L.) Merr.; test: Preemergence herbicidal evaluation (Example 148); settings: rating scale 0-9, two to four weeks after treatment
In short: as §2

[19] = test system: ECHCG, Barnyardgrass, Echinochloa crusgalli, (L.)Beau; test: Preemergence herbicidal evaluation (Example 148); settings: rating scale 0-9, two to four weeks after treatment
In short: as §2

[20] = test system: CHEAL, Lambsquarters, Chenopodium album, L. Common; test: Preemergence herbicidal evaluation (Example 148); settings: rating scale 0-9, two to four weeks after treatment
In short: as §2

[21] = test system: AMBEL, Ragweed, Common, Ambrosia artemiisifolia, L.; test: Preemergence herbicidal evaluation (Example 148); settings: rating scale 0-9, two to four weeks after treatment
In short: as §2

[22] = test system: TRZAW, Winter wheat, Tritium Aestivum, L. (Winter); test: Preemergence herbicidal evaluation (Example 148); settings: rating scale 0-9, two to four weeks after treatment
In short: as §2

[23] = test system: IPOHE, Morningglory, Ivyleaf, Ipomoea hederacea, (L)Jacq.; test: Preemergence herbicidal evaluation (Example 148); settings: rating scale 0-9, two to four weeks after treatment
In short: as §2

[24] = test system: ABUTH, Velvetleaf, Abutilon theophrasti, Medic.; test: Preemergence herbicidal evaluation (Example 148); settings: rating scale 0-9, two to four weeks after treatment
In short: as §2

CN(Cc1cccc(Cl)c1)S(=O)(=O)NC(=O)c1cc(-n2c(=O)cc(C(F)(F)F)n(C)c2=O)c(F)cc1Cl [Example 55]
Postemergence herbicidal rating SETVI ([1]; rate 0.016 kg/ha): 7.0 | Postemergence herbicidal rating SETVI ([1]; rate 0.032 kg/ha): 8.0 | Postemergence herbicidal rating DIGSA ([2]; rate 0.016 kg/ha): 5.0 | Postemergence herbicidal rating DIGSA ([2]; rate 0.032 kg/ha): 6.0 | Postemergence herbicidal rating ALMOY ([3]; rate 0.016 kg/ha): 2.0 | Postemergence herbicidal rating ALMOY ([3]; rate 0.032 kg/ha): 2.0 | Postemergence herbicidal rating XANST ([4]; rate 0.016 kg/ha): 9.0 | Postemergence herbicidal rating XANST ([4]; rate 0.032 kg/ha): 8.0 | Postemergence herbicidal rating ZEAMX ([5]; rate 0.016 kg/ha): 8.0 | Postemergence herbicidal rating ZEAMX ([5]; rate 0.032 kg/ha): 8.0 | Postemergence herbicidal rating GLXMA ([6]; rate 0.016 kg/ha): 8.0 | Postemergence herbicidal rating GLXMA ([6]; rate 0.032 kg/ha): 8.0 | Postemergence herbicidal rating ECHCG ([7]; rate 0.016 kg/ha): 7.0 | Postemergence herbicidal rating ECHCG ([7]; rate 0.032 kg/ha): 7.0 | Postemergence herbicidal rating CHEAL ([8]; rate 0.016 kg/ha): 7.0 | Postemergence herbicidal rating CHEAL ([8]; rate 0.032 kg/ha): 7.0 | Postemergence herbicidal rating AMBEL ([9]; rate 0.016 kg/ha): 8.0 | Postemergence herbicidal rating AMBEL ([9]; rate 0.032 kg/ha): 9.0 | Postemergence herbicidal rating TRZAW ([10]; rate 0.016 kg/ha): 6.0 | Postemergence herbicidal rating TRZAW ([10]; rate 0.032 kg/ha): 6.0 | Postemergence herbicidal rating IPOHE ([11]; rate 0.016 kg/ha): 8.0 | Postemergence herbicidal rating IPOHE ([11]; rate 0.032 kg/ha): 9.0 | Postemergence herbicidal rating ABUTH ([12]; rate 0.016 kg/ha): 9.0 | Postemergence herbicidal rating ABUTH ([12]; rate 0.032 kg/ha): 9.0 | Preemergence herbicidal rating SETVI ([13]; rate 0.125 kg/ha): 6.0 | Preemergence herbicidal rating SETVI ([13]; rate 0.25 kg/ha): 8.0 | Preemergence herbicidal rating DIGSA ([14]; rate 0.125 kg/ha): 8.0 | Preemergence herbicidal rating DIGSA ([14]; rate 0.25 kg/ha): 8.0 | Preemergence herbicidal rating ALMOY ([15]; rate 0.125 kg/ha): 0.0 | Preemergence herbicidal rating ALMOY ([15]; rate 0.25 kg/ha): 0.0 | Preemergence herbicidal rating XANST ([16]; rate 0.125 kg/ha): 6.0 | Preemergence herbicidal rating XANST ([16]; rate 0.25 kg/ha): 7.0 | Preemergence herbicidal rating ZEAMX ([17]; rate 0.125 kg/ha): 0.0 | Preemergence herbicidal rating ZEAMX ([17]; rate 0.25 kg/ha): 1.0 | Preemergence herbicidal rating GLXMA ([18]; rate 0.125 kg/ha): 8.0 | Preemergence herbicidal rating GLXMA ([18]; rate 0.25 kg/ha): 8.0 | Preemergence herbicidal rating ECHCG ([19]; rate 0.125 kg/ha): 5.0 | Preemergence herbicidal rating ECHCG ([19]; rate 0.25 kg/ha): 9.0 | Preemergence herbicidal rating CHEAL ([20]; rate 0.125 kg/ha): 8.0 | Preemergence herbicidal rating CHEAL ([20]; rate 0.25 kg/ha): 9.0 | Preemergence herbicidal rating AMBEL ([21]; rate 0.125 kg/ha): 8.0 | Preemergence herbicidal rating AMBEL ([21]; rate 0.25 kg/ha): 9.0 | Preemergence herbicidal rating TRZAW ([22]; rate 0.125 kg/ha): 1.0 | Preemergence herbicidal rating TRZAW ([22]; rate 0.25 kg/ha): 2.0 | Preemergence herbicidal rating IPOHE ([23]; rate 0.125 kg/ha): 8.0 | Preemergence herbicidal rating IPOHE ([23]; rate 0.25 kg/ha): 9.0 | Preemergence herbicidal rating ABUTH ([24]; rate 0.125 kg/ha): 9.0 | Preemergence herbicidal rating ABUTH ([24]; rate 0.25 kg/ha): 9.0

CCCN(CC)S(=O)(=O)NC(=O)c1cc(-n2c(=O)cc(C(F)(F)F)n(C)c2=O)c(F)cc1Cl [Example 62]
Postemergence herbicidal rating SETVI ([1]; rate 0.016 kg/ha): 6.0 | Postemergence herbicidal rating SETVI ([1]; rate 0.032 kg/ha): 6.0 | Postemergence herbicidal rating DIGSA ([2]; rate 0.016 kg/ha): 5.0 | Postemergence herbicidal rating DIGSA ([2]; rate 0.032 kg/ha): 5.0 | Postemergence herbicidal rating ALMOY ([3]; rate 0.016 kg/ha): 2.0 | Postemergence herbicidal rating ALMOY ([3]; rate 0.032 kg/ha): 2.0 | Postemergence herbicidal rating XANST ([4]; rate 0.016 kg/ha): 9.0 | Postemergence herbicidal rating XANST ([4]; rate 0.032 kg/ha): 9.0 | Postemergence herbicidal rating ZEAMX ([5]; rate 0.016 kg/ha): 6.5 | Postemergence herbicidal rating ZEAMX ([5]; rate 0.032 kg/ha): 6.5 | Postemergence herbicidal rating GLXMA ([6]; rate 0.016 kg/ha): 8.0 | Postemergence herbicidal rating GLXMA ([6]; rate 0.032 kg/ha): 8.0 | Postemergence herbicidal rating ECHCG ([7]; rate 0.016 kg/ha): 6.0 | Postemergence herbicidal rating ECHCG ([7]; rate 0.032 kg/ha): 7.0 | Postemergence herbicidal rating CHEAL ([8]; rate 0.016 kg/ha): 7.0 | Postemergence herbicidal rating CHEAL ([8]; rate 0.032 kg/ha): 8.0 | Postemergence herbicidal rating AMBEL ([9]; rate 0.016 kg/ha): 9.0 | Postemergence herbicidal rating AMBEL ([9]; rate 0.032 kg/ha): 9.0 | Postemergence herbicidal rating TRZAW ([10]; rate 0.016 kg/ha): 5.5 | Postemergence herbicidal rating TRZAW ([10]; rate 0.032 kg/ha): 6.5 | Postemergence herbicidal rating IPOHE ([11]; rate 0.016 kg/ha): 9.0 | Postemergence herbicidal rating IPOHE ([11]; rate 0.032 kg/ha): 9.0 | Postemergence herbicidal rating ABUTH ([12]; rate 0.016 kg/ha): 9.0 | Postemergence herbicidal rating ABUTH ([12]; rate 0.032 kg/ha): 9.0 | Preemergence herbicidal rating SETVI ([13]; rate 0.125 kg/ha): 3.0 | Preemergence herbicidal rating SETVI ([13]; rate 0.25 kg/ha): 7.0 | Preemergence herbicidal rating DIGSA ([14]; rate 0.125 kg/ha): 5.0 | Preemergence herbicidal rating DIGSA ([14]; rate 0.25 kg/ha): 7.0 | Preemergence herbicidal rating ALMOY ([15]; rate 0.125 kg/ha): 0.0 | Preemergence herbicidal rating ALMOY ([15]; rate 0.25 kg/ha): 0.0 | Preemergence herbicidal rating XANST ([16]; rate 0.125 kg/ha): 9.0 | Preemergence herbicidal rating XANST ([16]; rate 0.25 kg/ha): 9.0 | Preemergence herbicidal rating ZEAMX ([17]; rate 0.125 kg/ha): 1.0 | Preemergence herbicidal rating ZEAMX ([17]; rate 0.25 kg/ha): 1.0 | Preemergence herbicidal rating GLXMA ([18]; rate 0.125 kg/ha): 5.0 | Preemergence herbicidal rating GLXMA ([18]; rate 0.25 kg/ha): 9.0 | Preemergence herbicidal rating ECHCG ([19]; rate 0.125 kg/ha): 3.0 | Preemergence herbicidal rating ECHCG ([19]; rate 0.25 kg/ha): 6.0 | Preemergence herbicidal rating CHEAL ([20]; rate 0.125 kg/ha): 9.0 | Preemergence herbicidal rating CHEAL ([20]; rate 0.25 kg/ha): 9.0 | Preemergence herbicidal rating AMBEL ([21]; rate 0.125 kg/ha): 9.0 | Preemergence herbicidal rating AMBEL ([21]; rate 0.25 kg/ha): 9.0 | Preemergence herbicidal rating TRZAW ([22]; rate 0.125 kg/ha): 3.0 | Preemergence herbicidal rating TRZAW ([22]; rate 0.25 kg/ha): 5.0 | Preemergence herbicidal rating IPOHE ([23]; rate 0.125 kg/ha): 9.0 | Preemergence herbicidal rating IPOHE ([23]; rate 0.25 kg/ha): 9.0 | Preemergence herbicidal rating ABUTH ([24]; rate 0.125 kg/ha): 9.0 | Preemergence herbicidal rating ABUTH ([24]; rate 0.25 kg/ha): 9.0
